In patent US20260256931A1, “CD276 ANTIBODY AND METHODS OF USE THEREOF” (priority 2023, published 2026):
Where a SMILES comes first, the peptide text is derived from it. [ ]: non-standard residue; d: D form. Dolaproine = CO[C@@H]([C@@H]1CCCN1)[C@@H](C)C(=O)O; Dil = CC[C@H](C)[C@H](NC)[C@@H](CC(=O)O)OC; NMeV = CN[C@H](C(=O)O)C(C)C

What was measured:
Type in all cases: cell-based
MDA-MB-468 = experiment: In vitro cytotoxicity assay (MTT), MDA-MB-468; conditions: Homo sapiens, 120 h, MDA-MB-468, five days
Description: (§1) The human and mouse TNBC cells were seeded in 96-well plates with a density of 10,000 cells/well for MDA-MB-468, 1,000 cells/well for MDA-MB-231 and 500 cells/well for 4T1. The free MMAF, mAb-MMAF and mAb-MMAF/IMQ were added into each well to reach the final dosages of 0-300 or 400 nM. Higher concentrations, i.e. 0-20 μM, of free IMQ and mAb-IMQ, were tested. The treated cells were incubated at 37° C. and 5% CO2 for five days and the cell viability was analyzed using MTT Cell Proliferation Assay kit.

MDA-MB-231 = experiment: In vitro cytotoxicity assay (MTT), MDA-MB-231; conditions: Homo sapiens, MDA-MB-231, 120 h
Description: as §1

4T1 = experiment: In vitro cytotoxicity assay (MTT), 4T1; conditions: Mus musculus, 4T1, 120 h
Description: as §1

CC[C@H](C)[C@@H]([C@@H](CC(=O)N1CCC[C@H]1[C@H](OC)[C@@H](C)C(=O)N[C@@H](Cc1ccccc1)C(=O)O)OC)N(C)C(=O)[C@@H](NC(=O)[C@@H](NC)C(C)C)C(C)C [MMAF, Monomethyl auristatin F] (H-[NMeV]V[Dil][Dolaproine]F-OH)
IC50 (MDA-MB-468): 143 nM | IC50 (MDA-MB-231): 151 nM | IC50 (4T1): 104 nM
